This is an account of results in paper PMC12040169 (PLOS Biology, 2025).

Molecules are shown by their SMILES.

For orientation: viability means a read-out of living cells in per cent, often relative to untreated cells.

This data set is described as follows: in vitro. To be noted: human, hela cells, % viability.
On to `CCN(C(=O)c1ccncc1)C(CC1CCCCC1)c1ccccc1` (stereo not drawn) [CBK061674], for which the viability at 28.5 h, 10 µM was determined as 86.9%. The value for `CCNC(=O)N1CCc2c([nH]c3ccc(OC)cc23)C12CCN(CCOc1ccccc1)C2` (stereo not drawn) [CBK061690] was 93%. The value for `COc1ccc(CCNC(=O)CCCc2cn(C)c3ccccc23)cc1OC` [CBK061740] was 100%; that for `Cc1cccc(C)c1NC(=O)Nc1cc(N2CCNCC2)c2occc2c1` [CBK061748C] was 82.8%. For `COc1ccc(Br)c(C(=O)Nc2cc(N3CCNCC3)c3occc3c2)c1` [CBK061757C] the value was 115%; for `COc1cccc(OCCN2CCC3(C2)NCCc2c3[nH]c3cc(OC)ccc23)c1` (stereo not drawn) [CBK061794], 94.3%.

On to `COc1cc(-c2ccc3ccc(N)nc3n2)cc(OC)c1OC` [CBK061866], for which the viability at 28.5 h, 10 µM was 90.6%.

Turning to `CCCCCC/C=C/c1cnc2nc(NC(=O)NCC)ccc2c1` [CBK061880], the viability at 28.5 h, 10 µM was found to be 93.3%. The value for `CC(C)(C)c1ccc(-c2cnc3nc(N)ccc3c2)cc1` [CBK061888] was 88.3%; that for `CS(=O)(=O)c1ccc(-c2cnc3nc(N)ccc3c2)cc1` [CBK061916] was 92.9%. For `Nc1cc2cccnc2c(-c2ccc(OC(F)(F)F)cc2)n1` [CBK061926] the value was 90%; for `CS(=O)(=O)Nc1cc2cccnc2c(-c2ccccc2)n1` [CBK061928], 95.5%. For `O=C(c1cc(C(F)(F)F)cc(C(F)(F)F)c1)N1CCC(O)(c2ccc(Cl)cc2)CC1` [CBK061972] the value was 96.9%; for `COc1ccc(S(=O)(=O)Nc2cc(N3CCCC3)c3occc3c2)cc1OC` [CBK061975], 97.2%; for `O=[N+]([O-])c1cccc(S(=O)(=O)Nc2nnc(C(F)(F)F)s2)c1` [CBK062002], 118%. For the compound `O=S(=O)(Nc1nnc(C(F)(F)F)s1)c1ccc(-c2ccccn2)s1` [CBK062016], the viability at 28.5 h, 10 µM is 91.9%. Take `Cc1c(S(=O)(=O)Nc2nnc(C(F)(F)F)s2)sc2ccc(Cl)cc12` [CBK062018]: the viability at 28.5 h, 10 µM amounted to 81.9%. `O=[N+]([O-])c1cc(S(=O)(=O)Nc2nnc(C(F)(F)F)s2)ccc1Cl` [CBK062021]: the viability at 28.5 h, 10 µM is 105%. For `O=C(O)c1cc(S(=O)(=O)Nc2nnc(C(F)(F)F)s2)c(F)cc1Cl` [CBK062022], the viability at 28.5 h, 10 µM worked out at 95%. As for `O=C(O)c1ccc(S(=O)(=O)Nc2nnc(C(F)(F)F)s2)cc1` [CBK062023], the viability at 28.5 h, 10 µM was found to be 91.5%. Take `Cc1noc(C)c1S(=O)(=O)NC1CCN(Cc2ccccc2)CC1` [CBK062028]: the viability at 28.5 h, 10 µM was 83.4%. The value for `O=S(=O)(NC1CCN(Cc2ccccc2)CC1)c1cccc2nsnc12` [CBK062029] was 80.8%. The value for `O=S(=O)(NC1CCN(Cc2ccccc2)CC1)c1cccc2nonc12` [CBK062030] was 94.6%.

Turning to `Cc1noc(C)c1S(=O)(=O)Nc1ccnn1C` [CBK062073], the viability at 28.5 h, 10 µM worked out at 90.1%. For the compound `Cc1c(S(=O)(=O)Nc2ccnn2C)cnn1-c1ccccc1` [CBK062079], the viability at 28.5 h, 10 µM worked out at 97.5%. Turning to `Cn1nccc1NS(=O)(=O)c1ccc(-c2cnco2)s1` [CBK062088], the viability at 28.5 h, 10 µM worked out at 94.4%.

In the case of `Cn1nccc1NS(=O)(=O)c1cc(C(F)(F)F)cc(C(F)(F)F)c1` [CBK062090], the viability at 28.5 h, 10 µM came out at 92.6%. With `O=S(=O)(Nc1ccc(C(O)(C(F)(F)F)C(F)(F)F)cc1)c1cccc2nsnc12` [CBK062096], the viability at 28.5 h, 10 µM worked out at 108%. As to `Cc1c(S(=O)(=O)Nc2ccc(C(O)(C(F)(F)F)C(F)(F)F)cc2)cnn1-c1ccccc1` [CBK062099], the viability at 28.5 h, 10 µM is 92.1%. On to `O=S(=O)(Nc1ccc(C(O)(C(F)(F)F)C(F)(F)F)cc1)c1ccc(N2CCOCC2)nc1` [CBK062100], for which the viability at 28.5 h, 10 µM came to 94.9%. The value for `O=S(=O)(Nc1ccc(C(O)(C(F)(F)F)C(F)(F)F)cc1)c1ccccc1Br` [CBK062101] was 96.3%; that for `O=S(=O)(Nc1ccc(C(O)(C(F)(F)F)C(F)(F)F)cc1)c1ccc(Cl)c(Cl)c1` [CBK062102] was 111%. On to `O=S(=O)(Nc1ccc(C(O)(C(F)(F)F)C(F)(F)F)cc1)c1ccc(-c2ccon2)s1` [CBK062105], for which the viability at 28.5 h, 10 µM turned out to be 91.2%.

For the compound `Cc1nn(C)c(Cl)c1S(=O)(=O)NCc1ccc(C(F)(F)F)c(F)c1` [CBK062111], the viability at 28.5 h, 10 µM is 93.8%. For `Cc1c(S(=O)(=O)NCc2ccc(C(F)(F)F)c(F)c2)cnn1-c1ccccc1` [CBK062115] the value was 108%. For `Cc1nn(C)c(Cl)c1S(=O)(=O)Nc1cccc(-c2nnn[nH]2)c1` [CBK062127] the value was 96%; for `CCc1nnc(NS(=O)(=O)c2cc(C(=O)O)c(Cl)cc2F)s1` [CBK062195], 90.9%. For `Cc1nn(C)c(Cl)c1S(=O)(=O)Nc1ccc2nsnc2c1` [CBK062222], the viability at 28.5 h, 10 µM is 69.6%. The value for `CN1CCOc2cc(S(=O)(=O)Nc3cccnc3N3CCOCC3)ccc21` [CBK062299] was 108%; that for `Cc1cnc(CNS(=O)(=O)c2c(C)noc2C)cn1` [CBK062328] was 104%; that for `Cc1cc(OC(F)(F)F)ccc1NS(=O)(=O)c1ccc(-c2ccon2)s1` [CBK062361] was 86.7%. For `O=S(=O)(Nc1nnn[nH]1)c1cccc(C(F)(F)F)c1` [CBK062377] the value was 108%. For `Cc1noc(C)c1S(=O)(=O)Nc1nnn[nH]1` [CBK062378] the value was 112%. With `O=S(=O)(Nc1nnn[nH]1)c1ccc(N2CCOCC2)nc1` [CBK062385], the viability at 28.5 h, 10 µM was determined as 99%. The value for `CN1CCOc2cc(S(=O)(=O)Nc3nnn[nH]3)ccc21` [CBK062389] was 99.1%; that for `O=S(=O)(Nc1nnn[nH]1)c1ccc(-c2ccon2)s1` [CBK062391] was 97.7%; that for `O=S(=O)(Nc1nnn[nH]1)c1ccc(-c2cnco2)s1` [CBK062394] was 109%. On to `O=S(=O)(c1ccccc1Br)N1CCOCC1` [CBK062404], for which the viability at 28.5 h, 10 µM is 96.9%. Regarding `O=S(=O)(c1ccc(Br)cc1C(F)(F)F)N1CCOCC1` [CBK062405], the viability at 28.5 h, 10 µM stood at 102%. Consider `CN1CCN(S(=O)(=O)c2cccc(C(F)(F)F)c2)CC1` [CBK062425], for which the viability at 28.5 h, 10 µM was determined as 103%. For `Cc1nn(C)c(Cl)c1S(=O)(=O)N1CCN(C)CC1` [CBK062426], the viability at 28.5 h, 10 µM is 106%. The value for `CN1CCN(S(=O)(=O)c2cccc3nsnc23)CC1` [CBK062428] was 102%; that for `CN1CCN(S(=O)(=O)c2ccc3oc(=O)ccc3c2)CC1` [CBK062431] was 118%; that for `CN1CCN(S(=O)(=O)c2ccccc2Br)CC1` [CBK062435] was 93.2%. Regarding `O=S(=O)(Nc1ccc2[nH]ncc2c1)c1ccc(Oc2ccccc2)cc1` [CBK062522], the viability at 28.5 h, 10 µM worked out at 82.9%. The value for `O=[N+]([O-])c1cc(S(=O)(=O)Nc2ccc3[nH]ncc3c2)ccc1Cl` [CBK062537] was 84.6%; that for `Cc1noc(C)c1S(=O)(=O)Nc1cc(C(F)(F)F)ccc1N1CCOCC1` [CBK062545] was 90.4%.
